This note sets out measurements from patent US11472803B2, “7-substituted 1-aryl-naphthyridine-3-carboxylic acid amides and use thereof” (Bayer Aktiengesellschaft, priority 2016, dated 2022).

The target in the test is T1, human M2 receptor (Homo sapiens, UniProt P08172).
T1 construct: expressed in transfected cells; host or cells: CHO-DUKX (CHO-DUKX-M2-GIRK)
T1 sequence (P08172 1-466): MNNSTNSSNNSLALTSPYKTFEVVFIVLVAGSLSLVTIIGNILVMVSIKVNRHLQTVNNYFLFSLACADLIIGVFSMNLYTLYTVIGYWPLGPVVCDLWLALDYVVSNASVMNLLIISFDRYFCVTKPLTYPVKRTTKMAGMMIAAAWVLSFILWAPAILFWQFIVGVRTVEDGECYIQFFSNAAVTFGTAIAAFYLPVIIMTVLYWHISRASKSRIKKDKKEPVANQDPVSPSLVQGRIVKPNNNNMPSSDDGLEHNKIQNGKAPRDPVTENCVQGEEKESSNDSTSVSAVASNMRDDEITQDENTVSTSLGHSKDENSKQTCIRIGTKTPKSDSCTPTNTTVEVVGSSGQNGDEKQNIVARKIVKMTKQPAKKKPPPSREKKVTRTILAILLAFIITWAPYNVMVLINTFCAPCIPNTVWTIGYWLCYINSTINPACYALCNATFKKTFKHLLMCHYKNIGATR
The test is described as follows: Functional M2-GIRK1/4 activation test: allosteric potency (EC50) and efficiency at EC20 acetylcholine. The format is cell-based. As to conditions: CHO-DUKX-M2-GIRK cells; for EC50: voltage-sensitive dye, acetylcholine at EC20, in some cases mean of two or more determinations; for Emax / Efficiency: boosting of the acetylcholine effect at EC20 acetylcholine concentration. An outline of the steps:
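Positive allosteric modulation measured as boosting of an EC20 acetylcholine response: hyperpolarization via GIRK1/4 in CHO-DUKX-M2-GIRK cells, monitored by membrane-potential dye fluorescence over 60 s after agonist, compound preadded. Hill-function fit gives EC50 and efficiency.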

The EC50 is the midpoint of the concentration-response curve. A word on the Emax: it is the greatest response seen or fitted, relative to the assay's reference. `CC(C)[C@@H](C)NC(=O)c1cn(-c2c(F)cc(F)cc2F)c2nc(N3C[C@@H](O)[C@@H](O)C3)c(F)cc2c1=O` [Example 99, 7-[(3R,4S)-3,4-Dihydroxypyrrolidin-1-yl]-6-fluoro-N-[(2R)-3-methylbutan-2-yl]-4-oxo-1-(2,4,6-trifluorophenyl)-1,4-dihydro-1,8-naphthyridine-3-carboxamide] returned an EC50 of 35.5 nM and an Emax of 96%.
For the compound `O=C(NC(C1CC1)C(F)(F)C(F)(F)F)c1cn(-c2c(F)cc(F)cc2F)c2nc(N3C[C@@H](O)[C@H](O)C3)c(F)cc2c1=O` (single isomer, unassigned) [Example 202], it took 1 nM to reach a half-maximal effect (EC50) and the Efficiency stood at 100%.
As to `CC(C)(NC(=O)c1cn(-c2c(F)cc(F)cc2F)c2nc(N3CC[C@H](O)[C@@H]3CO)c(F)cc2c1=O)C(F)(F)C(F)(F)F` [Example 193, 6-Fluoro-7-[(2S,3S)-3-hydroxy-2-(hydroxymethyl)pyrrolidin-1-yl]-4-oxo-N-(3,3,4,4,4-pentafluoro-2-methylbutan-2-yl)-1-(2,4,6-trifluorophenyl)-1,4-dihydro-1,8-naphthyridine-3-carboxamide], the EC50 is 32.5 nM and the Emax amounted to 100%.
The matching figures for `O=C(N[C@@H](C1CC1)C(F)(F)F)c1cn(-c2ncc(F)cc2F)c2nc(N3CC[C@H](O)C3)c(F)cc2c1=O` [Example 153, N-[(1S)-1-Cyclopropyl-2,2,2-trifluoroethyl]-1-(3,5-difluoropyridin-2-yl)-6-fluoro-7-[(3S)-3-hydroxypyrrolidin-1-yl]-4-oxo-1,4-dihydro-1,8-naphthyridine-3-carboxamide]: 48 nM and 99%.
Taken in the same sequence, the figures for `CCC(COC(F)(F)F)NC(=O)c1cn(-c2c(F)cc(F)cc2F)c2nc(N3C[C@@H](O)[C@@H](O)C3)c(F)cc2c1=O` (mixture of isomers) [Example 95, 7-[(3R,4S)-3,4-Dihydroxypyrrolidin-1-yl]-6-fluoro-4-oxo-N-[1-(trifluoromethoxy)butan-2-yl]-1-(2,4,6-trifluorophenyl)-1,4-dihydro-1,8-naphthyridine-3-carboxamide] were 15.5 nM and 100%.
As for `COC[C@@H](NC(=O)c1cn(-c2c(F)cc(F)cc2F)c2nc(N3C[C@@H](O)[C@@H](O)C3)c(F)cc2c1=O)C(C)C` [Example 102, 7-[(3R,4S)-3,4-Dihydroxypyrrolidin-1-yl]-6-fluoro-N-[(2S)-1-methoxy-3-methylbutan-2-yl]-4-oxo-1-(2,4,6-trifluorophenyl)-1,4-dihydro-1,8-naphthyridine-3-carboxamide], a half-maximal response (EC50) required 295 nM and the Emax was 92%.
Taken in the same sequence, the figures for `CC(NC(=O)c1cn(-c2ncc(F)cc2F)c2nc(N3CC[C@H](O)C3)c(F)cc2c1=O)C(F)(F)C(F)(F)F` (single isomer, unassigned) [Example 128] were 9.8 nM and 90%.
The matching figures for `O=C(N[C@@H](C1CC1)C(F)(F)F)c1cn(-c2c(F)cc(F)cc2F)c2nc(N3CCCC[C@H]3CO)c(F)cc2c1=O` [Example 58, N-[(1S)-1-Cyclopropyl-2,2,2-trifluoroethyl]-6-fluoro-7-[(2S)-2-(hydroxymethyl)piperidin-1-yl]-4-oxo-1-(2,4,6-trifluorophenyl)-1,4-dihydro-1,8-naphthyridine-3-carboxamide]: 104 nM and 90%.
Taken in the same sequence, the figures for `CC(NC(=O)c1cn(-c2ncc(F)cc2F)c2nc(N3C[C@@H](O)[C@H](O)C3)c(F)cc2c1=O)C(F)(F)C(F)(F)F` (mixture of isomers) [Example 39, 1-(3,5-difluoropyridin-2-yl)-7-[(3R,4R)-3,4-dihydroxypyrrolidin-1-yl]-6-fluoro-4-oxo-N-[(2)-3,3,4,4,4-pentafluorobutan-2-yl]-1,4-dihydro-1,8-naphthyridine-3-carboxamide] were 20.5 nM and 100%.
`CC(C)(NC(=O)c1cn(-c2c(F)cc(F)cc2Cl)c2nc(N3C[C@@H](O)[C@H](O)C3)c(F)cc2c1=O)C(F)F` (single isomer, unassigned) [Example 142] showed a concentration for a half-maximal effect (EC50) of 39 nM and an Emax of 99%.
The matching figures for `CC(C)(NC(=O)c1cn(-c2c(F)cc(F)cc2Cl)c2nc(N3C[C@@H](O)[C@H](O)C3)c(F)cc2c1=O)C(F)F` [Example 141, 1-(2-Chloro-4,6-difluorophenyl)-N-(1,1-difluoro-2-methylpropan-2-yl)-7-[(3R,4R)-3,4-dihydroxypyrrolidin-1-yl]-6-fluoro-4-oxo-1,4-dihydro-1,8-naphthyridine-3-carboxamide]: 3.4 nM and 97%.
For the compound `CC(NC(=O)c1cn(-c2c(F)cc(F)cc2F)c2nc(N3CC[C@H](O)C3)c(F)cc2c1=O)C(F)(F)C(F)(F)F` (single isomer, unassigned) [Example 114], a half-maximal effect (EC50) was put at 7 nM and the Efficiency came to 94%.
With `C[C@H]1CN(c2nc3c(cc2F)c(=O)c(C(=O)N[C@@H](C2CC2)C(F)(F)F)cn3-c2c(F)cc(F)cc2F)CCN1` [Example 82, N-[(1S)-1-Cyclopropyl-2,2,2-trifluoroethyl]-6-fluoro-7-[(3S)-3-methylpiperazin-1-yl]-4-oxo-1-(2,4,6-trifluorophenyl)-1,4-dihydro-1,8-naphthyridine-3-carboxamide], the response was half-maximal at 140 nM (EC50) and the maximum response (Emax) is 65%.
The matching figures for `CC[C@H](NC(=O)c1cn(-c2ncc(F)cc2F)c2nc(N3CC[C@H](O)C3)c(F)cc2c1=O)C(F)(F)F` [Example 152, 1-(3,5-Difluoropyridin-2-yl)-6-fluoro-7-[(3S)-3-hydroxypyrrolidin-1-yl]-4-oxo-N-[(2S)-1,1,1-trifluorobutan-2-yl]-1,4-dihydro-1,8-naphthyridine-3-carboxamide]: 53 nM and 100%.
Taken in the same sequence, the figures for `O=C(N[C@@H](C1CC1)C(F)(F)F)c1cn(-c2c(F)cc(F)cc2F)c2nc(N3CCNCC3)c(F)cc2c1=O` [Example 81, N-[(1S)-1-Cyclopropyl-2,2,2-trifluoroethyl]-6-fluoro-4-oxo-7-(piperazin-1-yl)-1-(2,4,6-trifluorophenyl)-1,4-dihydro-1,8-naphthyridine-3-carboxamide] were 150 nM and 87%.
Regarding `O=C(NC12CC(C1)C2)c1cn(-c2c(F)cccc2F)c2nc(N3C[C@@H](O)[C@H](O)C3)c(F)cc2c1=O` [Example 5, N-(Bicyclo[1.1.1]pent-1-yl)-1-(2,6-difluorophenyl)-7-[(3R,4R)-3,4-dihydroxypyrrolidin-1-yl]-6-fluoro-4-oxo-1,4-dihydro-1,8-naphthyridine-3-carboxamide], a half-maximal response (EC50) required 69 nM and the Emax was determined as 99%.
Taken in the same sequence, the figures for `O=C(N[C@@H](C1CC1)C(F)(F)F)c1cn(-c2c(F)cc(F)cc2Cl)c2nc(N3CC(CO)(CO)C3)c(F)cc2c1=O` [Example 69, 7-[3,3-Bis(hydroxymethyl)azetidin-1-yl]-1-(2-chloro-4,6-difluorophenyl)-N-[(1S)-1-cyclopropyl-2,2,2-trifluoroethyl]-6-fluoro-4-oxo-1,4-dihydro-1,8-naphthyridine-3-carboxamide] were 5.9 nM and 100%.
As for `CCC(NC(=O)c1cn(-c2c(F)cc(F)cc2F)c2nc(N3C[C@@H](O)[C@H](O)C3)c(F)cc2c1=O)C(C)C` (single isomer, unassigned) [Example 30], it took 2.6 nM to reach a half-maximal effect (EC50) and the Efficiency is recorded as 100%.
Taken in the same sequence, the figures for `CC(C)(C)C(NC(=O)c1cn(-c2c(F)cc(F)cc2F)c2nc(N3CC(CO)(CO)C3)c(F)cc2c1=O)C(F)(F)C(F)(F)F` (single isomer, unassigned) [Example 216, 7-[3,3-bis(hydroxymethyl)azetidin-1-yl]-6-fluoro-4-oxo-N-[1,1,1,2,2-pentafluoro-4,4-dimethylpentan-3-yl]-1-(2,4,6-trifluorophenyl)-1,4-dihydro-1,8-naphthyridine-3-carboxamide] were 1.5 nM and 99%.
For the compound `O=C(N[C@@H](C1CC1)C(F)(F)F)c1cn(-c2c(F)cc(F)cc2Cl)c2nc(N3C[C@@H](O)[C@H](O)C3)c(F)cc2c1=O` [Example 42, 1-(2-chloro-4,6-difluorophenyl)-N-[(1S)-1-cyclopropyl-2,2,2-trifluoroethyl]-7-[(3R,4R)-3,4-dihydroxypyrrolidin-1-yl]-6-fluoro-4-oxo-1,4-dihydro-1,8-naphthyridine-3-carboxamide], it took 4 nM to reach a half-maximal effect (EC50) and the Emax turned out to be 100%.
Taken in the same sequence, the figures for `CC(C)(C)NC(=O)c1cn(-c2c(F)cc(F)cc2F)c2nc(N3C[C@@H](O)[C@@H](O)C3)c(F)cc2c1=O` [Example 80, N-tert-Butyl-7-[(3R,4S)-3,4-dihydroxypyrrolidin-1-yl]-6-fluoro-4-oxo-1-(2,4,6-trifluoro-phenyl)-1,4-dihydro-1,8-naphthyridine-3-carboxamide] were 24 nM and 100%.
